From PubChem BioAssay (NCI)
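Briefly, cells in 96-well plates were exposed to five compound concentrations for 48 h, and endpoints were estimated by linear interpolation. At the GI50, growth is halved. TGI marks complete inhibition of growth.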

How the values were obtained:
Assay in all cases: NCI anticancer screen, dose series, 48 h
HT29 colon = system: HT29 colon
HCT-116 colon = system: HCT-116 colon
RXF 393 renal = system: RXF 393 renal
EKVX NSCLC = system: EKVX NSCLC
TK-10 renal = system: TK-10 renal
SK-MEL-28 melanoma = system: SK-MEL-28 melanoma
SNB-19 CNS = system: SNB-19 CNS
SNB-75 CNS = system: SNB-75 CNS
PC-3 prostate = system: PC-3 prostate
CCRF-CEM leukemia = system: CCRF-CEM leukemia
NCI-H460 lung = system: NCI-H460 lung
SK-MEL-2 melanoma = system: SK-MEL-2 melanoma
U251 CNS = system: U251 CNS
OVCAR-8 ovarian = system: OVCAR-8 ovarian
SW-620 colon = system: SW-620 colon
ACHN renal = system: ACHN renal
HCT-15 colon = system: HCT-15 colon
DU-145 prostate = system: DU-145 prostate
SF-268 CNS = system: SF-268 CNS
786-0 renal = system: 786-0 renal
K-562 leukemia = system: K-562 leukemia
SN12C renal = system: SN12C renal
M14 melanoma = system: M14 melanoma
MALME-3M melanoma = system: MALME-3M melanoma
UACC-62 melanoma = system: UACC-62 melanoma
LOX IMVI melanoma = system: LOX IMVI melanoma
BT-549 breast = system: BT-549 breast
RPMI-8226 leukemia = system: RPMI-8226 leukemia
SF-539 CNS = system: SF-539 CNS
HOP-62 NSCLC = system: HOP-62 NSCLC
MCF7 breast = system: MCF7 breast
OVCAR-3 ovarian = system: OVCAR-3 ovarian
IGROV1 ovarian = system: IGROV1 ovarian
UO-31 renal = system: UO-31 renal
NCI/ADR-RES ovarian = system: NCI/ADR-RES ovarian
A549 NSCLC = system: A549 NSCLC
HL-60(TB) leukemia = system: HL-60(TB) leukemia
MOLT-4 leukemia = system: MOLT-4 leukemia
OVCAR-5 ovarian = system: OVCAR-5 ovarian
UACC-257 melanoma = system: UACC-257 melanoma
SK-MEL-5 melanoma = system: SK-MEL-5 melanoma
CAKI-1 renal = system: CAKI-1 renal
OVCAR-4 ovarian = system: OVCAR-4 ovarian
COLO 205 colon = system: COLO 205 colon
NCI-H522 lung = system: NCI-H522 lung
HCC-2998 colon = system: HCC-2998 colon
NCI-H226 lung = system: NCI-H226 lung
NCI-H23 lung = system: NCI-H23 lung
SF-295 CNS = system: SF-295 CNS
SR leukemia = system: SR leukemia
SK-OV-3 ovarian = system: SK-OV-3 ovarian

CCCC(=O)NC1CCc2cc(OC)c(OC)c(OC)c2-c2ccc(OC)c(=O)cc21 (stereo unspecified)
TGI (HT29 colon): 0.125 µM
TGI (HCT-116 colon): > 100 µM
TGI (RXF 393 renal): 44.7 µM
GI50 (EKVX NSCLC): > 100 µM
TGI (EKVX NSCLC): > 100 µM
TGI (TK-10 renal): > 100 µM
TGI (SK-MEL-28 melanoma): > 100 µM
TGI (SNB-19 CNS): > 100 µM
TGI (SNB-75 CNS): > 100 µM
TGI (PC-3 prostate): > 100 µM
TGI (CCRF-CEM leukemia): > 100 µM
TGI (NCI-H460 lung): > 100 µM
TGI (SK-MEL-2 melanoma): > 100 µM
TGI (U251 CNS): > 100 µM
TGI (OVCAR-8 ovarian): > 100 µM
TGI (SW-620 colon): > 100 µM
TGI (ACHN renal): > 100 µM
GI50 (HCT-15 colon): 0.011 µM
TGI (HCT-15 colon): 25.5 µM
TGI (DU-145 prostate): 0.0114 µM
TGI (SF-268 CNS): > 100 µM
TGI (786-0 renal): > 100 µM
TGI (K-562 leukemia): > 100 µM
TGI (SN12C renal): > 100 µM
GI50 (M14 melanoma): > 100 µM
TGI (M14 melanoma): > 100 µM
TGI (MALME-3M melanoma): > 100 µM
TGI (UACC-62 melanoma): > 100 µM
TGI (LOX IMVI melanoma): > 100 µM
TGI (BT-549 breast): > 100 µM
TGI (RPMI-8226 leukemia): > 100 µM
TGI (SF-539 CNS): 0.00199 µM
TGI (HOP-62 NSCLC): > 100 µM
TGI (MCF7 breast): > 100 µM
TGI (OVCAR-3 ovarian): 0.211 µM
TGI (IGROV1 ovarian): > 100 µM
GI50 (UO-31 renal): 0.138 µM
TGI (UO-31 renal): 75.9 µM
GI50 (NCI/ADR-RES ovarian): 3.2 µM
TGI (NCI/ADR-RES ovarian): > 100 µM
TGI (A549 NSCLC): > 100 µM
TGI (HL-60(TB) leukemia): 0.158 µM

CC(C)=NNC=N/C(C#N)=C(\N)C#N
TGI (HT29 colon): > 100 µM
TGI (HCT-116 colon): > 100 µM
TGI (RXF 393 renal): > 100 µM
TGI (EKVX NSCLC): > 100 µM
TGI (MOLT-4 leukemia): > 100 µM
TGI (OVCAR-5 ovarian): > 100 µM
TGI (TK-10 renal): > 100 µM
TGI (SK-MEL-28 melanoma): > 100 µM
TGI (SNB-19 CNS): > 100 µM
TGI (SNB-75 CNS): > 100 µM
TGI (UACC-257 melanoma): > 100 µM
TGI (SK-MEL-5 melanoma): > 100 µM
TGI (PC-3 prostate): > 100 µM
TGI (CCRF-CEM leukemia): > 100 µM
TGI (NCI-H460 lung): > 100 µM
TGI (SK-MEL-2 melanoma): > 100 µM
TGI (U251 CNS): > 100 µM
TGI (CAKI-1 renal): > 100 µM
TGI (OVCAR-8 ovarian): > 100 µM
TGI (SW-620 colon): > 100 µM
TGI (ACHN renal): > 100 µM
TGI (OVCAR-4 ovarian): > 100 µM
TGI (COLO 205 colon): > 100 µM
TGI (HCT-15 colon): > 100 µM
TGI (DU-145 prostate): > 100 µM
TGI (SF-268 CNS): > 100 µM
TGI (786-0 renal): > 100 µM
TGI (K-562 leukemia): > 100 µM
TGI (M14 melanoma): > 100 µM
TGI (MALME-3M melanoma): > 100 µM
TGI (UACC-62 melanoma): > 100 µM
TGI (NCI-H522 lung): > 100 µM
TGI (HCC-2998 colon): 1.21 µM
TGI (NCI-H226 lung): > 100 µM
TGI (NCI-H23 lung): > 100 µM
TGI (BT-549 breast): > 100 µM
TGI (RPMI-8226 leukemia): > 100 µM
TGI (SF-539 CNS): > 100 µM
TGI (HOP-62 NSCLC): > 100 µM
TGI (MCF7 breast): > 100 µM
TGI (OVCAR-3 ovarian): > 100 µM
TGI (IGROV1 ovarian): > 100 µM
TGI (UO-31 renal): > 100 µM
TGI (NCI/ADR-RES ovarian): > 100 µM
TGI (SF-295 CNS): > 100 µM
TGI (SR leukemia): > 100 µM
TGI (A549 NSCLC): > 100 µM
TGI (SK-OV-3 ovarian): > 100 µM
TGI (HL-60(TB) leukemia): > 100 µM
